Results on three compounds are retold here after patent US20070254914A1, “Low-concentration atropine solution for preventing myopia progression and preparing method thereof” (Non-Profit Organization Chang Gung Memorial Hospital, priority 2006, published 2007).

Where a name gives a salt, the structure may show the parent alone. Read-outs that look alike come from different tables or passages of the source.

One data set relates to mydriasis phenomenon. Kind of data set: durations of mydriasis phenomenon in administration of different ingredients for preventing myopia progression. It counts as in vivo, human.
The subject of data set [1] is patients (accommodation capability of eyes). Kind of data set: influences on accommodation capability with administration of different atropine concentrations. It counts as in vivo, human. The protocol: Moreover, the myopia exacerbation also substantially relates to visual distance during near working that the patient continuously overuses high accommodation capability of eyes.
With regard to Table 4, 21 patients were treated with 0.05% (w/w) atropine solution in a first treatment group, 9 patients were treated with 0.1% (w/w) atropine solution in a second treatment group and 6 patients were treated with blank solution in the control group. Male-female ratios in the treatment groups and the control group were respectively […] in the first treatment group, 5:4 in the second treatment group and 3:3 in the control group.
Wherein, average ages were respectively 9.4±1.7 years old in the first treatment group, 11±1.7 years old in the second treatment group and 10±2 years old in the control group.
Treating periods of the treatment groups in average were respectively 22.43±12.9 months in the first treatment group and 25.88±12.47 months in the second treatment group.
Observation timing after applying the atropine solutions were respectively 16.37±2.53 hours in the first treatment group and 17.11±1.9 hours in the second treatment group.

Data set [2] relates to patients (myopia progression). Kind of data set: study of the present invention in 2006: myopia progression in patients treated with 0.05% atropine solution. It counts as in vivo, human. The settings on record: for Increased diopter (D) per year: 0.05% (w/w) atropine solution. From the text:
With regard to Table 2, 21 patients (42 eyes) were subject in the treatment group and 36 patients were subject in the control group. All patients are residents in southern Taiwan. Male-female ratios in the treatment group and the control group were respectively 12:9 and 18:18.
Wherein, an average age in the treatment group was 8.38±1.47 years old (range from 6 to 12 years old) and an average age in the control group was 8.11±1.12 years old (range from 6 to 12 years old).
Treating periods of the treatment group and the control group in average are respectively 19.95±9.04 months and 21.47±10.02.

For data set [3], the system named is patients (pupil diameter). Kind of data set: mydriasis phenomenon (pupil diameter) after administration of different atropine concentrations. It counts as in vivo, human.
In another data set the test system is patients (photophobia). The data set is described as follows: photophobia ratios with administration of different atropine concentrations. It counts as in vivo, human. The text has this:
According to following Table 6, patients treated with 0.05% (w/w) atropine solution suffered the photophobia in a lower ratio in comparison with ones treated with 0.1% (w/w) atropine solution.

For a further data set, the system named is Myopic Children. The note with it: Shin's study 1999, cited from earlier work.
The mark [4] stands for this setting: marketed concentrations as listed in Table 7 (Soln/Ointment 0.5%-3%).

As for `CN1[C@@H]2CC[C@H]1C[C@@H](OC(=O)C(CO)c1ccccc1)C2` (stereo partly shown) [Atropine sulfate], the “Occurring time (mydriasis)” value is 45 to 120 min with mydriasis phenomenon (Soln, 0.05%) and 45 to 120 min in the data set with mydriasis phenomenon (setting [4]). Further, the Duration of mydriasis in the data set with mydriasis phenomenon (Soln, 0.05% (w/w)) lay within 0.5 to 0.75 days; in the data set with mydriasis phenomenon (setting [4]), 7 to 14 days.
With `CN1[C@@H]2CC[C@H]1C[C@@H](OC(=O)C(CO)c1ccccc1)C2` (stereo partly shown) [Atropine, atropine], the Accommodation capability in data set [1] (0.05% atropine solution, observed 16.37±2.53 hours after applying, treating period 22.43±12.9 months) is 2.45(D); in data set [1] (0.1% atropine solution, observed 17.11±1.9 hours after applying, treating period 25.88±12.47 months), 2.22(D). Besides, the “Increased diopter (D) per year” value in data set [2] (1st (yearly follow-up)) is 0.34(D/yr); in data set [2] (2nd (yearly follow-up)), 0.32(D/yr); in data set [2] (3rd (yearly follow-up)), 0.14(D/yr); in data set [2] (All (average)), 0.29(D/yr). Besides, the Myopia progression in data set [2] (0.05% atropine solution, 21 patients (42 eyes), 6 to 12 years old, treating period 19.95±9.04 months) is listed as 0.28(diopter/yr); in the data set on Myopic Children (0.1% atropine solution) it was 0.47 diopter/yr; in the data set on Myopic Children (0.25% atropine solution) it was 0.45 diopter/yr; in the data set with Myopic Children (0.5% atropine solution) it was 0.04 diopter/yr. In addition, the Pupil diameter in data set [3] (0.05% atropine solution) was 5.52 mm; in data set [3] (0.1% atropine solution), 6.10 mm. The Duration of mydriasis in the data set with mydriasis phenomenon (1% (w/w) atropine solution) fell in the range of 7 to 14 days; in the data set with mydriasis phenomenon (Soln, 0.05% (w/w), listed as atropine) it was 0.5 to 0.75 days. The Photophobia ratio with patients (photophobia) (0.05% atropine solution) is 66.67%; with patients (photophobia) (0.1% atropine solution), 85.71%.
In the case of `CN(C)CCOC(=O)C(c1ccccc1)C1(O)CCCC1` (stereo not shown) [Cyclopentolate Hydrochloride], in the data set with mydriasis phenomenon (human, in vivo), the Duration of mydriasis was determined as 2 days and the “Occurring time (mydriasis)” value was in the range of 30 to 60 min.
